# Legend:
# [1] = molecular target: T1, Inhibitor of nuclear factor kappa-B kinase subunit epsilon (Homo sapiens, UniProt Q14164); experiment: Inhibition of IKK-epsilon
# T1 sequence (Q14164 whole entry): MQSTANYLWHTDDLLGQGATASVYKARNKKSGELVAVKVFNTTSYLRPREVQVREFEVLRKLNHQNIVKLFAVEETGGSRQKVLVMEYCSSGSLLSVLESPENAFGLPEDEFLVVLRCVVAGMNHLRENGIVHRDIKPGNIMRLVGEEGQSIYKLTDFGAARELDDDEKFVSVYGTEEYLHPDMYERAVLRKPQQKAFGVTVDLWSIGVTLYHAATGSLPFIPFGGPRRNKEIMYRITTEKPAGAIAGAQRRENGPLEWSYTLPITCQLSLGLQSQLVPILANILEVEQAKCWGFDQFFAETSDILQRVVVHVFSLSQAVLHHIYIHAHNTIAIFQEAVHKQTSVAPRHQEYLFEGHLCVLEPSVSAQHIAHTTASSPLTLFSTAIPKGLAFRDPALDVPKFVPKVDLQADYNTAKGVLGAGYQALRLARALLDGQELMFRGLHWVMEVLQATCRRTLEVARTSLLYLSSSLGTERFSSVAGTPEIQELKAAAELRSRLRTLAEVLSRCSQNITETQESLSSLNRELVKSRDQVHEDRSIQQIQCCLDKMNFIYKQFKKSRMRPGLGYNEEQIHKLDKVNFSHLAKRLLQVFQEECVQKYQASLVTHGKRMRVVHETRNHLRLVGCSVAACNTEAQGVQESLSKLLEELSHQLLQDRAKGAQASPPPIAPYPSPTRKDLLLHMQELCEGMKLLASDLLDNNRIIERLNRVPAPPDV
# [2] = molecular target: Casein kinase I isoform epsilon (Homo sapiens, UniProt P49674); experiment: Binding affinity to CSNK1eplison assessed as dissociation constant
# Sequence of Casein kinase I isoform epsilon (P49674 whole entry, canonical isoform): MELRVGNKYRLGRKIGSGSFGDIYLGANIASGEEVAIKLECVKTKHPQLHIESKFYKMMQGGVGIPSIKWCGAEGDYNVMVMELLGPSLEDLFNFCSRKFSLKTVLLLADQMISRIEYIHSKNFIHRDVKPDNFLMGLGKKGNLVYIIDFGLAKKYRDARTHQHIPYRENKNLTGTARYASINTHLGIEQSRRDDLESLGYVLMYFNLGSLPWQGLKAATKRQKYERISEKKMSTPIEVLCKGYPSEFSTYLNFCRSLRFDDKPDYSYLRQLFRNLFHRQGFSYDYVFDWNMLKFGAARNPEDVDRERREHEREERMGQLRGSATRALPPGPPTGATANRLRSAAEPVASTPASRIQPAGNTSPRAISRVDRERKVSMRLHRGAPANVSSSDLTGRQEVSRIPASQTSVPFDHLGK
# [3] = molecular target: T2, Receptor-type tyrosine-protein kinase FLT3 (Homo sapiens, UniProt P36888); experiment: Binding affinity to FLT3 assessed as dissociation constant
# T2 sequence (P36888 whole entry): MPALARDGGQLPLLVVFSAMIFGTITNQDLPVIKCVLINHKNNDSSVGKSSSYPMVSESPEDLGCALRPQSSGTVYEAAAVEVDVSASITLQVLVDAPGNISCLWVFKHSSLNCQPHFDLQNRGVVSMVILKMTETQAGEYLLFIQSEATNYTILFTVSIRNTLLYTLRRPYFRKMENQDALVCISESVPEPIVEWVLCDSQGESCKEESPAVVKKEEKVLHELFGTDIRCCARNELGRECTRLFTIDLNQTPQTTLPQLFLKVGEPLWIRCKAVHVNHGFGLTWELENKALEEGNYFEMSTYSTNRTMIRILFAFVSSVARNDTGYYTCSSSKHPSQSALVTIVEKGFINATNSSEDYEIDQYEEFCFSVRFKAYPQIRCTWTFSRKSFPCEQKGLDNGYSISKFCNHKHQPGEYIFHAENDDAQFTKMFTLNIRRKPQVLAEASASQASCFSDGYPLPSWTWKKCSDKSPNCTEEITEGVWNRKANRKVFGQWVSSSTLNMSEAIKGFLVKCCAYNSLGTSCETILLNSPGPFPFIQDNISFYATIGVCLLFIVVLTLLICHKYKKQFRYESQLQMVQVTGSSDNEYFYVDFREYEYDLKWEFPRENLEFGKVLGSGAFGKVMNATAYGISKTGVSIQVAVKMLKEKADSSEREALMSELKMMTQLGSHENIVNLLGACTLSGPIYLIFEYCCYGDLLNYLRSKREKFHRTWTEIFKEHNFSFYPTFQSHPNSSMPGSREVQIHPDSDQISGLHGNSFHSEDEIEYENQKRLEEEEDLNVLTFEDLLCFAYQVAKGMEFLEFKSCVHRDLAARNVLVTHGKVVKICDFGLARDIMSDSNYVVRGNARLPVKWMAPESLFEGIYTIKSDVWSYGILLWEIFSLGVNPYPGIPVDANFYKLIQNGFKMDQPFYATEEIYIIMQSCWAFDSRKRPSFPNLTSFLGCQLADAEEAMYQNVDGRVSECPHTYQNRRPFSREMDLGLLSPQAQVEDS
# [4] = molecular target: T3, Aurora kinase A (Homo sapiens, UniProt O14965); experiment: Inhibition of Aurora A kinase
# T3 sequence (O14965 whole entry): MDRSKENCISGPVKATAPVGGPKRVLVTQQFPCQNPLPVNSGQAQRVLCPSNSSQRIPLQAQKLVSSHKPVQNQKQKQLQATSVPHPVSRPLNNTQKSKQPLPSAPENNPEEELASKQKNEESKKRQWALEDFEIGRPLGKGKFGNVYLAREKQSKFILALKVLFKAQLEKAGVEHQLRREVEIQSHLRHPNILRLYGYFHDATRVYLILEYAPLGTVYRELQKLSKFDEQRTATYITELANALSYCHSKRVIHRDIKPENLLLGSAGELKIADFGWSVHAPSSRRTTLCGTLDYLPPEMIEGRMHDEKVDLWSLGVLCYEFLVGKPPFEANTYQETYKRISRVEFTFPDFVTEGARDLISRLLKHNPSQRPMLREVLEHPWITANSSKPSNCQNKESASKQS
# [5] = molecular target: T4, Inhibitor of nuclear factor kappa-B kinase subunit beta (Homo sapiens, UniProt O14920); experiment: Inhibition of IKK-beta in human A549 cells assessed as TNF-alpha-induced Nuclear factor-kappa-B nuclear translocation
# T4 sequence (O14920 whole entry): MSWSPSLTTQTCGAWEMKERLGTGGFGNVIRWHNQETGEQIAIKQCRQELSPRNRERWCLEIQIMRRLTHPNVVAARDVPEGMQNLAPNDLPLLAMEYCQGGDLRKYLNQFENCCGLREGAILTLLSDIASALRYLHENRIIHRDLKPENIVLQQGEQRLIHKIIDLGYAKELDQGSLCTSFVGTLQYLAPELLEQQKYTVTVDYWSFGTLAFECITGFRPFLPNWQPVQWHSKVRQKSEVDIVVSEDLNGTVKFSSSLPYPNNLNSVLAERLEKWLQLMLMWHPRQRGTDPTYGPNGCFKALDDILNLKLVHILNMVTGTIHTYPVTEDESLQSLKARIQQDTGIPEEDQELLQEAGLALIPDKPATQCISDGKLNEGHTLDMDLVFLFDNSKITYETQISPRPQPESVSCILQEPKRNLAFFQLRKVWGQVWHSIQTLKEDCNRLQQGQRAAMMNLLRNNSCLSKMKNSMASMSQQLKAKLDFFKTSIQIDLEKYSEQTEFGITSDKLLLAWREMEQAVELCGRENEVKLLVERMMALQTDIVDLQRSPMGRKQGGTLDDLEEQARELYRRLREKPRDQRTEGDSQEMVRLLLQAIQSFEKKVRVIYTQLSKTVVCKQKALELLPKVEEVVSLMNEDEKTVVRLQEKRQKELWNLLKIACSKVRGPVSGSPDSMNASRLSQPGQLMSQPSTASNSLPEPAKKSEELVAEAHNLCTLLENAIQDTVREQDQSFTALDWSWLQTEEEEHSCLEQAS
smiles,measurement,setting,value
CCCS(=O)(=O)N1CCC(c2c[nH]c3c(C(N)=O)cc(-c4ccccc4)cc23)CC1,IC50,[1],> 3160 nM
same,Kd,[2],1580 nM
same,Kd,[3],1260 nM
same,IC50,[4],1260 nM
same,IC50,[5],158 nM
